The test system of experiment [1] is S. aureus DSM 20231. Briefly: fitness (endpoint OD595 vs no drug) (fraction); higher = more growth. An outline of the steps: (§1)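 Fitness was defined as the optical density at the transition into stationary phase relative to the robust mean of no-drug control wells. Values were capped at 1. Cultures were started at OD595 0.01 in 384-well plates (30 µl, or 55 µl for S. pneumoniae) in TSB, LB Lennox or CY at 37 °C. OD595 was recorded every 30 min over 14 h, with the first reading subtracted as background.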

Experiment [2] has as its system B. subtilis 168. Kind of experiment: Bliss interaction score (quartile over a dose matrix) (fitness difference); higher = more antagonism (negative = synergy). The essentials: (§2)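 Fitness was OD595 at entry into stationary phase divided by the plate's robust no-drug mean and capped at 1; single-drug fitness was inferred from combination data. The Bliss score is observed minus expected (product) fitness, summarised by quartiles over technical, biological and donor/recipient replicates.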

In experiment [3] the test system is S. aureus DSM 20231. Described as above. The essentials: as §2
Experiment [4] has as its system S. pneumoniae D39V. Described as above. An outline of the steps: as §2
The test system of experiment [5] is S. aureus Newman. Described as above. The essentials: as §2
In experiment [6] the test system is S. aureus Newman. Kind of experiment: fitness (endpoint OD595 vs no drug) (fraction); higher = more growth. An outline of the steps: as §1
Setting [7] is: first compound 0.75 µg/mL, partner 12.5 µg/mL.
Where [8] appears, read: first compound 0.75 µg/mL, partner 25 µg/mL.
[9] abbreviates: first compound 0.75 µg/mL, partner 50 µg/mL.
The mark [10] stands for this setting: first compound 1.5 µg/mL, partner 12.5 µg/mL.
Where [11] appears, read: first compound 1.5 µg/mL, partner 50 µg/mL.
The mark [12] stands for this setting: first compound 3 µg/mL, partner 12.5 µg/mL.
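Throughout, for Bliss interaction score (quartile over a dose matrix): first quartile when negative (synergy) and third quartile when positive (antagonism).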

For the compound `O=C(N[C@H](CO)[C@H](O)c1ccc([N+](=O)[O-])cc1)C(Cl)Cl` [Chloramphenicol] + COc1cc(Cc2cnc(N)nc2N)cc(OC)c1OC [Trimethoprim], the fitness in experiment [1] (first compound 0.75 µg/mL, partner 0.125 µg/mL) is 0.613; in experiment [1] (first compound 0.75 µg/mL, partner 0.25 µg/mL) it was 0.648; in experiment [1] (first compound 0.75 µg/mL, partner 0.5 µg/mL) it was 0.48; in experiment [1] (first compound 0.75 µg/mL, partner 1 µg/mL), 0.0816; in experiment [1] (first compound 1.5 µg/mL, partner 0.125 µg/mL), 0.499; in experiment [1] (first compound 1.5 µg/mL, partner 0.25 µg/mL) it was 0.492. The fitness came out at 0.405 in experiment [1] (first compound 1.5 µg/mL, partner 0.5 µg/mL); 0.0821 in experiment [1] (first compound 3 µg/mL, partner 0.125 µg/mL); 0.0908 in experiment [1] (first compound 3 µg/mL, partner 0.25 µg/mL); 0.0866 in experiment [1] (first compound 3 µg/mL, partner 0.5 µg/mL); 0.0882 in experiment [1] (first compound 3 µg/mL, partner 1 µg/mL). Besides, the results for the Bliss interaction score in experiment [2], in experiment [3] and in experiment [4] were 0.0616, 0.133 and -0.081, respectively.
Regarding `O=C(N[C@H](CO)[C@H](O)c1ccc([N+](=O)[O-])cc1)C(Cl)Cl` [Chloramphenicol] + C[C@@H](O)[C@H]1C(=O)N2C(C(=O)O)=C(SCCNC=N)C[C@H]12 [Imipenem], the Bliss interaction score in experiment [3] was 0.0442; in experiment [5], -0.0316; in experiment [4], -0.0662.
As for `O=C(N[C@H](CO)[C@H](O)c1ccc([N+](=O)[O-])cc1)C(Cl)Cl` [Chloramphenicol] + C[C@H]1COc2c(N3CCN(C)CC3)c(F)cc3c(=O)c(C(=O)O)cn1c23 [Levofloxacin], the Bliss interaction score in experiment [2] worked out at 0.0387; in experiment [3] it was 0.0741; in experiment [4], 0.0655.
Turning to `O=C(N[C@H](CO)[C@H](O)c1ccc([N+](=O)[O-])cc1)C(Cl)Cl` [Chloramphenicol] + O=C1CN(/N=C/c2ccc([N+](=O)[O-])o2)C(=O)N1 [Nitrofurantoin], the Bliss interaction score is -0.0404 in experiment [3], -0.0842 in experiment [5] and -0.157 in experiment [4].
Regarding `O=C(N[C@H](CO)[C@H](O)c1ccc([N+](=O)[O-])cc1)C(Cl)Cl` [Chloramphenicol] + O=C(O[C@@H]1Cc2c(O)cc(O)cc2O[C@@H]1c1cc(O)c(O)c(O)c1)c1cc(O)c(O)c(O)c1 [EGCG], the fitness in experiment [1] (setting [7]) came to 0.653; in experiment [1] (setting [8]) it was 0.646; in experiment [1] (setting [9]), 0.669; in experiment [1] (setting [10]), 0.56; in experiment [1] (first compound 1.5 µg/mL, partner 25 µg/mL) it was 0.572; in experiment [1] (setting [11]), 0.494. The fitness in experiment [1] (setting [12]) is 0.15; in experiment [1] (first compound 3 µg/mL, partner 25 µg/mL), 0.136; in experiment [1] (first compound 3 µg/mL, partner 50 µg/mL), 0.0905; in experiment [6] (setting [7]) it was 0.649; in experiment [6] (setting [8]), 0.699; in experiment [6] (setting [9]) it was 0.699. The fitness in experiment [6] (setting [10]) was 0.602; in experiment [6] (setting [11]), 0.509; in experiment [6] (setting [12]), 0.189. For the same compound, the Bliss interaction score in experiment [2] is 0.103; in experiment [3] it was 0.0831; in experiment [4], -0.0762.
Consider `O=C(O[C@@H]1Cc2c(O)cc(O)cc2O[C@@H]1c1cc(O)c(O)c(O)c1)c1cc(O)c(O)c(O)c1` [EGCG] + CN1CCC[C@H]1c1cccnc1 [Nicotine], for which, in experiment [3], the Bliss interaction score is -0.157.
On to `CC(=O)O[C@H]1C[C@@]2(C)[C@@H](C[C@@H](O)[C@H]3[C@@]4(C)CC[C@@H](O)[C@@H](C)[C@@H]4CC[C@@]32C)/C1=C(\CCC=C(C)C)C(=O)O` [Fusidic acid] + CC(C)(O)c1ccccc1CC[C@@H](SCC1(CC(=O)O)CC1)c1cccc(/C=C/c2ccc3ccc(Cl)cc3n2)c1 [Montelukast], for which, in experiment [3], the Bliss interaction score was -0.241.
On the same count and under the same terms, then `CC(=O)O[C@H]1C[C@@]2(C)[C@@H](C[C@@H](O)[C@H]3[C@@]4(C)CC[C@@H](O)[C@@H](C)[C@@H]4CC[C@@]32C)/C1=C(\CCC=C(C)C)C(=O)O` [Fusidic acid] + C[C@H]1C[C@@H]2[C@H]([C@@H](O)C[C@@]3(C)[C@H]2CC[C@]3(O)C(=O)CO)[C@@]2(C)C=CC(=O)C=C12 [Methylprednisolone], with -0.127; and `CC(=O)O[C@H]1C[C@@]2(C)[C@@H](C[C@@H](O)[C@H]3[C@@]4(C)CC[C@@H](O)[C@@H](C)[C@@H]4CC[C@@]32C)/C1=C(\CCC=C(C)C)C(=O)O` [Fusidic acid] + Cc1c(Cl)cccc1Nc1ccccc1C(=O)O [Tolfenamic], with 0.16.
In the case of `CCC[C@@H]1C[C@@H](C(=O)N[C@@H]([C@H]2O[C@H](SC)[C@H](O)[C@@H](O)[C@H]2O)[C@@H](C)O)N(C)C1` [Lincomycin] + CC(C)(O)c1ccccc1CC[C@@H](SCC1(CC(=O)O)CC1)c1cccc(/C=C/c2ccc3ccc(Cl)cc3n2)c1 [Montelukast], the Bliss interaction score in experiment [3] was -0.268.
The same measure, in the same setting: then `CCC[C@@H]1C[C@@H](C(=O)N[C@@H]([C@H]2O[C@H](SC)[C@H](O)[C@@H](O)[C@H]2O)[C@@H](C)O)N(C)C1` [Lincomycin] + CCCSc1nc(N[C@@H]2C[C@H]2c2ccc(F)c(F)c2)c2nnn([C@@H]3C[C@H](OCCO)[C@@H](O)[C@H]3O)c2n1 [Ticagrelor], with -0.385.
As for `CCC[C@@H]1C[C@@H](C(=O)N[C@@H]([C@H]2O[C@H](SC)[C@H](O)[C@@H](O)[C@H]2O)[C@@H](C)O)N(C)C1` [Lincomycin] + C[C@H]1C[C@@H]2[C@H]([C@@H](O)C[C@@]3(C)[C@H]2CC[C@]3(O)C(=O)CO)[C@@]2(C)C=CC(=O)C=C12 [Methylprednisolone], in experiment [3], the Bliss interaction score was -0.248.
For the compound `CCC[C@@H]1C[C@@H](C(=O)N[C@@H]([C@H]2O[C@H](SC)[C@H](O)[C@@H](O)[C@H]2O)[C@@H](C)O)N(C)C1` [Lincomycin] + Cc1c(C)c2c(c(C)c1O)CCC(C)(COc1ccc(CC3SC(=O)NC3=O)cc1)O2 [Troglitazone], the Bliss interaction score in experiment [3] came out at 0.222.
Regarding `CCC[C@@H]1C[C@@H](C(=O)N[C@@H]([C@H]2O[C@H](SC)[C@H](O)[C@@H](O)[C@H]2O)[C@@H](C)O)N(C)C1` [Lincomycin] + Cc1c(Cl)cccc1Nc1ccccc1C(=O)O [Tolfenamic], the Bliss interaction score in experiment [3] was -0.244.
On the same count and under the same terms, in the case of `CCC[C@@H]1C[C@@H](C(=O)N[C@@H]([C@H]2O[C@H](SC)[C@H](O)[C@@H](O)[C@H]2O)[C@@H](C)O)N(C)C1` [Lincomycin] + Cc1cccc(CN2CCN(C(c3ccccc3)c3ccc(Cl)cc3)CC2)c1 [Meclizine] it was 0.278; in that of `CCC[C@@H]1C[C@@H](C(=O)N[C@@H]([C@H]2O[C@H](SC)[C@H](O)[C@@H](O)[C@H]2O)[C@@H](C)O)N(C)C1` [Lincomycin] + O=C(O)Cc1cc(I)c(Oc2ccc(O)c(I)c2)c(I)c1 [Tiratricol], 0.233.
On the same count and under the same terms, in the case of `COc1c(N2C[C@@H]3CCCN[C@@H]3C2)c(F)cc2c(=O)c(C(=O)O)cn(C3CC3)c12` [Moxifloxacin] + Cc1c(Cl)cccc1Nc1ccccc1C(=O)O [Tolfenamic] it was -0.12; in that of `O=C1CN(/N=C/c2ccc([N+](=O)[O-])o2)C(=O)N1` [Nitrofurantoin] + CCCSc1nc(N[C@@H]2C[C@H]2c2ccc(F)c(F)c2)c2nnn([C@@H]3C[C@H](OCCO)[C@@H](O)[C@H]3O)c2n1 [Ticagrelor], -0.277; in that of `O=C1CN(/N=C/c2ccc([N+](=O)[O-])o2)C(=O)N1` [Nitrofurantoin] + CCCc1nc2c(C)cc(-c3nc4ccccc4n3C)cc2n1Cc1ccc(-c2ccccc2C(=O)O)cc1 [Telmisartan], -0.216.
Turning to `C/C(=C\C(=O)OCCCCCCCCC(=O)O)C[C@@H]1OC[C@H](C[C@@H]2O[C@H]2[C@@H](C)[C@H](C)O)[C@@H](O)[C@H]1O` [Pseudomonic acid] + CCCSc1nc(N[C@@H]2C[C@H]2c2ccc(F)c(F)c2)c2nnn([C@@H]3C[C@H](OCCO)[C@@H](O)[C@H]3O)c2n1 [Ticagrelor], the Bliss interaction score in experiment [3] was found to be 0.241.

The values above are taken from the supplement of paper PMC10627819.
